# Measured values from patent US20220227781A1, “PYRIMIDINE DERIVATIVE INHIBITING GROWTH OF CANCER CELL AND MEDICINAL USE THEREOF” (ONCOBIX CO., LTD., priority 2019, published 2022).
# Target: EXON 20 Insertion (NPG) Ba/F3 Cell (Homo sapiens, UniProt P00533, INS772GNP, cells depend on it)
# Assay: Measurement of inhibitory effect on cancer cell growth (MTT assay)
# Conditions: read-out: Measured value of inhibitory effect on cancer cell growth (IC50), EXON 20 Insertion (NPG) Ba/F3 Cell, Ba/F3 cells expressing EGFR with NPG inserted at D770_N771, 72 hours treatment, read at 595 nm
# Method: First, the present invention used a vector in which NPG of 3 amino acids were added to D770_N771 site of the most frequent alterations, and used the Ba/F3 cell line for expression of these genes.
# Pre-constructed stable cells of 1×10^4 cells were placed in a 96 well plate and incubated overnight, and then the compounds of Examples were treated at a dose dependent manner After 72 hours, MTT reagent was added, and after 3 hours, stop buffer (10% SDS) was added.
# Chain of EXON 20 Insertion (NPG) Ba/F3 Cell (P00533 with tags, fused parts or gaps INS772GNP): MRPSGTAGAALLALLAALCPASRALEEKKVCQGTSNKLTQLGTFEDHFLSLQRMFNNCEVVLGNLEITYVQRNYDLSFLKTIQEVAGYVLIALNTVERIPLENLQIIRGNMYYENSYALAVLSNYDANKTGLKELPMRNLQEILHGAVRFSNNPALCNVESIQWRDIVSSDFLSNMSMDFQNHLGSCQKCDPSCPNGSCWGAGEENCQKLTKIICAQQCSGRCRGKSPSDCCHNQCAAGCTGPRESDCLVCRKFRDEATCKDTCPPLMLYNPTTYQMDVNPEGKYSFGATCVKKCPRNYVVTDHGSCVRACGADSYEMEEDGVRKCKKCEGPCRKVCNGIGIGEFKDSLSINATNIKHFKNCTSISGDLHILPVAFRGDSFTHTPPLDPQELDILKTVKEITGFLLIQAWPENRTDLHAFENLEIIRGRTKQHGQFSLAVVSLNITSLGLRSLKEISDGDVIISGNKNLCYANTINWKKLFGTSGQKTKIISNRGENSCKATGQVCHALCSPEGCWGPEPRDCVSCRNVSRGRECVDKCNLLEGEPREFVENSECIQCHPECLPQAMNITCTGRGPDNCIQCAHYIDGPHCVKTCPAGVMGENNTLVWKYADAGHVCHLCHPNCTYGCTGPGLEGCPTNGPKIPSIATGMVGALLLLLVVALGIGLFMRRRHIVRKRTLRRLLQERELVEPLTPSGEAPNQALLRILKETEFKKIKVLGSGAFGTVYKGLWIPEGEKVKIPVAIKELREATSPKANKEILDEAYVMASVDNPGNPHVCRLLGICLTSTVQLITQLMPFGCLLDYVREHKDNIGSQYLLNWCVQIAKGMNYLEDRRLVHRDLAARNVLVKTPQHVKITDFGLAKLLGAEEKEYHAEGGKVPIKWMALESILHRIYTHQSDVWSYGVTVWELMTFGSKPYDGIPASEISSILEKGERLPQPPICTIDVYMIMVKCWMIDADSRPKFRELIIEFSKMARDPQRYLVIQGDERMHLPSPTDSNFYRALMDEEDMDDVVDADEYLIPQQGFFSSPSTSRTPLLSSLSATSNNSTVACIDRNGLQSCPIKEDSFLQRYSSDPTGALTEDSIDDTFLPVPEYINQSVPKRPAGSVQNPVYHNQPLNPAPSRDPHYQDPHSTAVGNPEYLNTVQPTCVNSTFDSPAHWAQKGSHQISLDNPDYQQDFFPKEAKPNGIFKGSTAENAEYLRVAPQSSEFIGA
row,SMILES,GI50
1,"C=CC(=O)Nc1cc(Nc2nc(Nc3ccccc3N(C)S(C)(=O)=O)c3sccc3n2)c(OC)cc1N(C)CCN(C)C [Example 8, N-(2-((2-(dimethylamino)ethyl)(methyl)amino)-4-methoxy-5-((4-((2-(N-methylmethylsulfon amido)phenyl)amino)thieno[3,2-d]pyrimidin-2-yl)amino)phenyl)acrylamide]",100 to 300 nM
2,"COc1cc(N2CCC(N(C)C)CC2)c(NC(C)C)cc1Nc1ncc(Cl)c(Nc2ccccc2N(C)S(C)(=O)=O)n1 [Example 6, N-(2-((5-chloro-2-((4-(4-(dimethylamino)piperidin-1-yl)-5-(isopropylamino)-2-methoxyphenyl)amino)pyrimidin-4-yl)amino)phenyl)-N-methylmethanesulfonamide]",300 to 1000 nM
3,"COc1cc(N2CCC(N3CCN(C)CC3)CC2)c(NC(C)C)cc1Nc1ncc(Cl)c(Nc2ccccc2N(C)S(C)(=O)=O)n1 [Example 5, N-(2-((5-chloro-2-((5-(isopropylamino)-2-methoxy-4-(4-(4-methylpiperazin-1-yl)piperidin-1-yl)phenyl)amino)pyrimidin-4-yl)amino)phenyl)-N-methylmethanesulfonamide]",300 to 1000 nM
4,"COc1cc(N2CCC(N3CCN(C)CC3)CC2)c(NC(C)C)cc1Nc1nc(Nc2ccccc2N(C)S(C)(=O)=O)c2sccc2n1 [Example 4, N-(2-((2-((5-(isopropylamino)-2-methoxy-4-(4-(4-methylpiperazin-1-yl)piperidin-1-yl)phenyl)amino)thieno[3,2-d]pyrimidin-4-yl)amino)phenyl)-N-methylmethanesulfonamide]",300 to 1000 nM
5,"COc1cc(N2CCC(N(C)C)CC2)c(NC(C)C)cc1Nc1nc(Nc2ccccc2N(C)S(C)(=O)=O)c2sccc2n1 [Example 3, N-(2-((2-((4-(4-(dimethylamino)piperidin-1-yl)-5-(isopropylamino)-2-methoxyphenyl)amino)thieno[3,2-d]pyrimidin-4-yl)amino)phenyl)-N-methylmethanesulfonamide]",300 to 1000 nM
6,"COc1cc(N(C)CCN(C)C)c(NC(C)C)cc1Nc1ncc(Cl)c(Nc2ccccc2N(C)S(C)(=O)=O)n1 [Example 1, N-(2-((5-chloro-2-((4-((2-(dimethylamino)ethyl)(methyl)amino)-5-(isopropylamino)-2-methoxyphenyl)amino)pyrimidin-4-yl)amino)phenyl)-N-methylmethanesulfonamide]",300 to 1000 nM
7,"COc1cc(N(C)CCN(C)C)c(NC(C)C)cc1Nc1nc(Nc2ccccc2N(C)S(C)(=O)=O)c2sccc2n1 [Example 2, N-(2-((2-((4-((2-(dimethylamino)ethyl)(methyl)amino)-5-(isopropylamino)-2-methoxyphenyl)amino)thieno[3,2-d]pyrimidin-4-yl)amino)phenyl)-N-methylmethanesulfonamide]",300 to 1000 nM
8,"C=CC(=O)Nc1cc(Nc2nc(Nc3ccccc3N(C)S(C)(=O)=O)c3sccc3n2)c(OC)cc1N1CCC(N2CCN(C)CC2)CC1 [Example 7, N-(4-methoxy-5-((4-((2-(N-methylmethylsulfonamido)phenyl)amino)thieno[3,2-d]pyrimidin-2-yl)amino)-2-(4-(4-methylpiperazin-1-yl)piperidin-1-yl)phenyl)acrylamide]",100 to 300 nM

# Other lines, results leading:
row,GI50,SMILES
1,< 100 nM,"C=CC(=O)Nc1cc(Nc2ncc(Cl)c(Nc3ccc4nccnc4c3NS(C)(=O)=O)n2)c(OC)cc1N(C)CCN(C)C [Example 12, N-(5-((5-chloro-4-((5-(methylsulfonamido)quinoxalin-6-yl)amino)pyrimidin-2-yl)amino)-2-((2-(dimethylamino)ethyl)(methyl)amino)-4-methoxyphenyl)acrylamide]"
2,< 100 nM,"C=CC(=O)Nc1cc(Nc2ncc(Cl)c(Nc3cc(F)ccc3N(C)S(C)(=O)=O)n2)c(OC)cc1N(C)CCN(C)C [Example 13, N-(5-((5-chloro-4-((5-fluoro-2-(N-methylmethylsulfonamido)phenyl)amino)pyrimidin-2-yl)amino)-2-((2-(dimethylamino)ethyl)(methyl)amino)-4-methoxyphenyl)acrylamide]"
3,< 100 nM,"C=CC(=O)Nc1cc(Nc2ncc(Cl)c(Nc3ccc4nccnc4c3N(C)S(C)(=O)=O)n2)c(OC)cc1N(C)CCN(C)C [Example 11, N-(5-((5-chloro-4-((5-(N-methylmethylsulfonamido)quinoxalin-6-yl)amino)pyrimidin-2-yl)amino)-2-((2-(dimethylamino)ethyl)(methyl)amino)-4-methoxyphenyl)acrylamide]"
4,100 to 300 nM,"C=CC(=O)Nc1cc(Nc2nc(Nc3ccccc3N(C)S(C)(=O)=O)c3sccc3n2)c(OC)cc1N1CCC(N(C)C)CC1 [Example 9, N-(2-(4-(dimethylamino)piperidin-1-yl)-4-methoxy-5-((4-((2-(N-methylmethylsulfonamido)phenyl)amino)thieno[3,2-d]pyrimidin-2-yl)amino)phenyl)acrylamide]"
5,< 100 nM,"C=CC(=O)Nc1cc(Nc2ncc(Cl)c(Nc3cc(F)ccc3NS(C)(=O)=O)n2)c(OC)cc1N(C)CCN(C)C [Example 14, N-(5-((5-chloro-4-((5-fluoro-2-(methylsulfonamido)phenyl)amino)pyrimidin-2-yl)amino)-2-((2-(dimethylamino)ethyl)(methyl)amino)-4-methoxyphenyl)acrylamide]"
6,< 100 nM,"C=CC(=O)Nc1cc(Nc2ncc(C(=O)OC(C)C)c(Nc3ccccc3N(C)S(C)(=O)=O)n2)c(OC)cc1N(C)CCN(C)C [Example 15, ISOPROPYL 2-((5-acrylamido-4-((2-(dimethylamino)ethyl)(methyl)amino)-2-methoxyphenyl)amino)-4-((2-(N-methylmethylsulfonamido)phenyl)amino)pyrimidine-5-carboxylate]"
7,< 100 nM,"C=CC(=O)Nc1cc(Nc2ncc(C(=O)OC3CC3)c(Nc3ccccc3N(C)S(C)(=O)=O)n2)c(OC)cc1N(C)CCN(C)C [Example 16, CYCLOPROPYL 2-((5-acrylamido-4-((2-(dimethylamino)ethyl)(methyl)amino)-2-methoxyphenyl)amino)-4-((2-(N-methylmethylsulfonamido)phenyl)amino)pyrimidine-5-carboxylate]"
8,< 100 nM,"C=CC(=O)Nc1cc(Nc2ncc(Cl)c(Nc3ccccc3NS(C)(=O)=O)n2)c(OC)cc1N(C)CCN(C)C [Example 10, N-(5-((5-chloro-4-((2-(methylsulfonamido)phenyl)amino)pyrimidin-2-yl)amino)-2-((2-(dimethylamino)ethyl)(methyl)amino)-4-methoxyphenyl)acrylamide]"
9,< 100 nM,"C=CC(=O)Nc1cc(Nc2cc(Nc3ccccc3N(C)S(C)(=O)=O)ncn2)c(OC)cc1N(C)CCN(C)C [Example 17, N-(2-((2-(dimethylamino)ethyl)(methyl)amino)-4-methoxy-5-((6-((2-(N-methylmethylsulfon amido)phenyl)amino)pyrimidin-4-yl)amino)phenyl)acrylamide]"
